The conditions of data set [1]: in vivo.
Description: Urine samples of normally metabolizing human subjects who were known to be taking chronic doses of lurasidone were tested for the presence of lurasidone and eleven metabolites (excluding isomeric metabolites). Each patient sample was analyzed twice to ensure accuracy. Due to the high probability for false identification of isobars, MS/MS data was collected and selectively looked at to add confidence to the identification.
The conditions of data set [2]: cited from earlier work; for presence in serum: 40 mg oral dosing of radiolabelled lurasidone.
For data set [3] the following is noted: cited from earlier work; for presence in serum: mice, rats, dogs (M8 also monkeys), 10 mg/kg oral administration of radiolabelled lurasidone.

Here are results for nine molecules from patent publication US9606132B2, “Methods of monitoring adherence to lurasidone therapy” (Ameritox, Ltd., priority 2013, dated 2017).

Like-named read-outs stand apart in the source and are kept apart here.

In the case of `O=C(O)C1CCCCC1CN1C(=O)C2C(C1=O)[C@@H]1CC[C@H]2C1O` (some centres unmarked) [M5], the “detectability in human urine (Example 1)” value in data set [1] (human) is on record as “neither metabolite ID-20220 (M5) nor metabolite ID-20219 (M11) were found to be excreted through human urine in detectable amounts”. With `O=C1C2C(C(=O)N1CC1CCCCC1CN1CCN(c3nsc4ccccc34)CC1)[C@@H]1CC[C@H]2C1O` (some centres unmarked) [M8/M9, Hydroxy-Lurasidone], the “detectability in human urine (Example 1)” value in data set [1] is “present in detectable quantities in each test of each subject's urine sample”. Regarding `O=C1C2C(C(=O)N1CC1CCCCC1CN1CCN(c3nsc4ccccc34)CC1)[C@@H]1CC[C@H]2C1O` (some centres unmarked) [M8], the presence in serum result in data set [2] (humans) and in data set [3] was “present in an unspecified low amount” each time.

Turning to `O=C1C2C(C(=O)N1CC1CCCCC1CN1CCN(c3nsc4ccccc34)CC1)[C@@H]1CC[C@H]2C1O` (some centres unmarked) [M9], the identification in serum entry in data set [3] (rats and dogs) was “identified in rats and dogs”.

Take `O=C1C2C(C(=O)N1CC1CCCCC1CN1CCN(c3n[s+]([O-])c4ccccc34)CC1)[C@H]1CC[C@@H]2C1` (some centres unmarked) [M10]: in data set [1], the “detectability in human urine (Example 1)” value is “not present at any significant amount”. On to `O=C(O[C@@H]1O[C@H](C(=O)O)[C@@H](O)[C@H](O)[C@H]1O)C1CCCCC1CN1C(=O)C2C(C1=O)[C@H]1CC[C@@H]2C1` (some centres unmarked) [M11 Gluc], for which the “Lurasidone Metabolite Distribution in Human Urine (qualitative identification)” value in data set [1] was “✓*”.

Take `O=C(O)C1CCCCC1CN1C(=O)C2C(C1=O)[C@H]1CC[C@@H]2C1` (some centres unmarked) [M11, 2-{(3,5-Dioxo-4-azatricyclo[5.2.1.0^2,6]dec-4-yl)methyl}cyclohexanecarboxylic acid]: the “detectability in human urine (Example 1)” value in data set [1] (human) is reported as “neither metabolite ID-20220 (M5) nor metabolite ID-20219 (M11) were found to be excreted through human urine in detectable amounts”. Besides, the “Lurasidone Metabolite Distribution in Human Urine (qualitative identification)” value in data set [1] is “✓^*”. In addition, in data set [2] (plasma, post oral dosing), the “share of total radioactivity in plasma” value is listed as 24%. Turning to `CSc1ccccc1C(=N)N1CCN(CC2CCCCC2CN2C(=O)C3C(C2=O)[C@H]2CC[C@@H]3C2)CC1` (some centres unmarked) [M21, S-Methyl Lurasidone], the “detectability in human urine (Example 1)” value in data set [1] is reported as “present in detectable quantities in each test of each subject's urine sample”. Moreover, the “detection as circulating metabolite in serum” value in data set [3] (any of the animal models, radiolabelled lurasidone) was “did not detect”. For `[H]/N=C(/c1ccccc1SC)N1CCN(CC2CCCCC2CN2C(=O)C3C(C2=O)[C@@H]2CC[C@H]3C2O)CC1` (some centres unmarked) [M22, S-Methyl Hydroxy Lurasidone], the “detectability in human urine (Example 1)” value in data set [1] was “present in detectable quantities in each test of each subject's urine sample”. Besides, the presence in serum entry in data set [2] (humans) and in data set [3] was “present in an unspecified low amount” in each case. Moreover, the “share of total drug-related exposure” value in data set [2] (humans) is “less than 10%”. Also, the “detection in other animal models” value in data set [3] (rabbits or monkeys) was “not detected in any amount”.
